Measured values: patent publication US20160257697A1, “THIOPHENE-SUBSTITUTED TETRACYCLIC COMPOUNDS AND METHODS OFUSE THEREOF FOR THE TREATMENT OF VIRAL DISEASES” (priority 2013, published 2016)
Where two headings read alike, the source gives them in different places.

Legend:
Experiment in all cases: microbe, parasite or virus in culture
Assay type in all cases: cell-based, Hepatitis C virus (HCV)
Conditions in all cases: Replicon Assay A
HCV replicon 1AY93H = test system: HCV replicon 1AY93H
How it was run: (§1)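 Cells seeded 2000/well + compound; 0.5% DMSO, 5% FBS; harvest day 3, lyse. Multiplex TaqMan RT-PCR for replicon (Neo probe) and cyclophilin RNA; amounts from Ct vs log(ng) linear regression of replicon total RNA standards.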

HCV replicon 1A = test system: HCV replicon 1A
How it was run: as §1

HCV replicon 2B = test system: HCV replicon 2B
How it was run: as §1

[1] = read-out: 1A Y93H IC50, replicon 1AY93H
[2] = Hepatitis C virus, read-out: 2B IC50 (nM), replicon 2B
[3] = read-out: 1A Y93H IC50, HCV replicon 1A Y93H
[4] = read-out: 2B IC50, HCV replicon 2B
[5] = Hepatitis C virus, read-out: 1A Y93H IC50 (nM), replicon 1AY93H

Compound	IC50 (HCV replicon 1AY93H; [1]) [nM]	IC50 (HCV replicon 1A; replicon 1A) [pM]	IC50 (HCV replicon 2B; read-out: 2B IC50, replicon 2B) [nM]	also measured
COC(=O)N[C@H](C(=O)N1CCC[C@H]1c1nc(-c2ccc3c(c2)OC(c2ccc(Cl)s2)n2c-3cc3cc(-c4c[nH]c([C@@H]5CCCN5C(=O)[C@@H](NC(=O)OC)C5CCOCC5)n4)ccc32)c[nH]1)C1CCOCC1 (mixture of isomers) [Compound 727]	–	–	–	IC50 (HCV replicon 1AY93H; Hepatitis C virus, read-out: 1A Y93H IC50, HCV replicon 1A Y93H): 0.056 nM; IC50 (HCV replicon 1A; Hepatitis C virus, HCV replicon 1A): 24 pM; IC50 (HCV replicon 2B; Hepatitis C virus, read-out: 2B IC50, HCV replicon 2B): 0.027 nM
COC(=O)NC(C(=O)N1CCC[C@H]1c1ncc(-c2cc(F)c3c(c2)OC(c2ccc(C4CC4)s2)n2c-3cc3cc(-c4cnc([C@@H]5C[C@H]6C[C@H]6N5C(=O)[C@@H](NC(=O)OC)C(C)C)[nH]4)ccc32)[nH]1)C(C)(C)F (single isomer, unassigned) [Compound 98]	0.06	1.1	–	IC50 (HCV replicon 2B; [2]): 2.16 nM
COC(=O)N[C@H](C(=O)N1CCC[C@H]1c1ncc(-c2cc(C)c3c(c2)OC(c2cc4c(s2)CCC4)n2c-3cc3cc(-c4cnc([C@@H]5CCCN5C(=O)[C@@H](NC(=O)OC)C5C[C@@H](C)O[C@@H](C)C5)[nH]4)ccc32)[nH]1)C(C)C (single isomer, unassigned) [Compound 549]	–	–	–	IC50 (HCV replicon 1AY93H; [3]): 0.563 nM; IC50 (HCV replicon 1A; HCV replicon 1A): 7.15 pM; IC50 (HCV replicon 2B; [4]): 0.169 nM
COC(=O)N[C@H](C(=O)N1CCC[C@H]1c1nc(-c2cc(F)c3c(c2)OC(c2ccc(C4CC4)s2)n2c-3cc3cc(-c4c[nH]c([C@@H]5C[C@H]6C[C@H]6N5C(=O)[C@@H](NC(=O)OC)C(C)C)n4)ccc32)c[nH]1)C(C)C (single isomer, unassigned) [Compound 720]	–	–	–	IC50 (HCV replicon 1AY93H; [3]): 0.52 nM; IC50 (HCV replicon 1A; HCV replicon 1A): 1.9 pM; IC50 (HCV replicon 2B; [4]): 3.99 nM
CCc1ccc(C2Oc3cc(-c4cnc([C@@H]5CCCN5C(=O)[C@@H](NC(=O)OC)C(C)C)[nH]4)cc(F)c3-c3cc4cc(-c5cnc([C@@H]6C[C@H]7C[C@H]7N6C(=O)C(NC(=O)OC)C6CCOC(C)(C)C6)[nH]5)ccc4n32)s1 (single isomer, unassigned) [Compound 202]	0.49	1.3	3.31	–
COC(=O)N[C@H](C(=O)N1CCC[C@H]1c1ncc(-c2cc(F)c3c(c2)OC(c2ccc(CCF)s2)n2c-3cc3cc(-c4cnc([C@@H]5CCCN5C(=O)[C@@H](NC(=O)OC)C(C)C)[nH]4)ccc32)[nH]1)C(C)C (single isomer, unassigned) [Compound 43]	0.12	–	0.54	IC50 (HCV replicon 1A; Hepatitis C virus, replicon 1A): 1.9 pM
CCc1ccc(C2Oc3cc(-c4cnc([C@@H]5CCCN5C(=O)[C@@H](NC(=O)OC)C(C)C)[nH]4)ccc3-c3c(F)c4cc(-c5cnc([C@@H]6CCCN6C(=O)[C@@H](NC(=O)OC)C(C)C)[nH]5)ccc4n32)s1 (single isomer, unassigned) [Compound 603]	–	–	–	IC50 (HCV replicon 1AY93H; [3]): 0.183 nM; IC50 (HCV replicon 1A; HCV replicon 1A): 3.2 pM; IC50 (HCV replicon 2B; [4]): 0.496 nM
CCc1ccc(C2Oc3cc(-c4cnc([C@@H]5CCCN5C(=O)[C@@H](NC(=O)OC)C(C)C)[nH]4)cc(F)c3-c3cc4cc(-c5cnc([C@@H]6C[C@@H](F)CN6C(=O)C(NC(=O)OC)C6CCOC(C)(C)C6)[nH]5)ccc4n32)s1 (single isomer, unassigned) [Compound 260]	0.047	1	11.7	–
COC(=O)N[C@H](C(=O)N1CCC[C@H]1c1ncc(-c2cc(F)c3c(c2)OC(c2ccc(C(C)C(F)(F)F)s2)n2c-3cc3cc(-c4cnc([C@@H]5CCCN5C(=O)[C@@H](NC(=O)OC)C(C)C)[nH]4)ccc32)[nH]1)C(C)C (single isomer, unassigned) [Compound 132]	–	–	6	IC50 (HCV replicon 1AY93H; [5]): 4.93 nM; IC50 (HCV replicon 1A; Hepatitis C virus, replicon 1A): 3.2 pM
COC(=O)NC(C(=O)N1CCC[C@H]1c1ncc(-c2ccc3c(c2)cc2n3C(c3cc4nccnc4s3)Oc3cc(-c4cnc([C@@H]5CCCN5C(=O)[C@@H](NC(=O)OC)C(C)C)[nH]4)cc(F)c3-2)[nH]1)C1C[C@@H](C)O[C@@H](C)C1 (single isomer, unassigned) [Compound 371]	0.553	–	0.0627	IC50 (HCV replicon 1A; Hepatitis C virus, replicon 1A): 4.2 pM
CCc1ccc(C2Oc3cc(-c4cnc([C@@H]5CCCN5C(=O)[C@@H](NC(=O)OC)C(C)C)[nH]4)cc(F)c3-c3cc4cc(-c5cnc([C@@H]6C[C@H]7C[C@H]7N6C(=O)C(NC(=O)OC)C6CCOC(C)(C)C6)[nH]5)ccc4n32)s1 (single isomer, unassigned) [Compound 199]	26.5	118	33.3	–
COC(=O)N[C@H](C(=O)N1CCC[C@H]1c1ncc(-c2cc(F)c3c(c2)OC(c2ccc(C4(N)CC4)s2)n2c-3cc3cc(-c4cnc([C@@H]5CCCN5C(=O)[C@@H](NC(=O)OC)C(C)C)[nH]4)ccc32)[nH]1)C(C)C (mixture of isomers) [Compound 57]	–	–	–	IC50 (HCV replicon 1AY93H; [5]): 0.37 nM; IC50 (HCV replicon 1A; Hepatitis C virus, replicon 1A): 11.4 pM; IC50 (HCV replicon 2B; [2]): 2.79 nM
COC(=O)N[C@H](C(=O)N1C[C@H](F)C[C@H]1c1ncc(-c2ccc3c(c2)OC(c2ccc(C)s2)n2c-3cc3cc(-c4cnc([C@@H]5C[C@H]6C[C@H]6N5C(=O)[C@@H](NC(=O)OC)C(C)C)[nH]4)ccc32)[nH]1)C(C)C (single isomer, unassigned) [Compound 707]	–	–	–	IC50 (HCV replicon 1AY93H; [3]): 0.034 nM; IC50 (HCV replicon 1A; HCV replicon 1A): 6.4 pM; IC50 (HCV replicon 2B; [4]): 0.84 nM
COC(=O)NC(C(=O)N1CCC[C@H]1c1ncc(-c2ccc3c(c2)cc2n3C(c3cc(C)c(C)s3)Oc3cc(-c4cnc([C@@H]5CCCN5C(=O)[C@@H](NC(=O)OC)C5CCOCC5)[nH]4)cc(F)c3-2)[nH]1)C(C)(C)F (single isomer, unassigned) [Compound 131]	3.83	7.8	9.78	–
COC(=O)NC(C(=O)N1CCC[C@H]1c1ncc(-c2ccc3c(c2)cc2n3C(c3ccc(C(C)C)s3)Oc3cc(-c4cnc([C@@H]5CCCN5C(=O)[C@@H](NC(=O)OC)C(C)C)[nH]4)cc(F)c3-2)[nH]1)C1CCOC(C)(C)C1 (single isomer, unassigned) [Compound 243]	0.87	1.5	6.81	–
COCc1ccc(C2Oc3cc(-c4cnc([C@@H]5CCCN5C(=O)[C@@H](NC(=O)OC)C(C)C)[nH]4)cc(F)c3-c3cc4cc(-c5cnc([C@@H]6CCCN6C(=O)[C@@H](NC(=O)OC)[C@@H]6C[C@@H](C)O[C@@H](C)C6)[nH]5)ccc4n32)s1 (single isomer, unassigned) [Compound 533]	–	–	–	IC50 (HCV replicon 1AY93H; [3]): 0.0913 nM; IC50 (HCV replicon 1A; HCV replicon 1A): 3.73 pM; IC50 (HCV replicon 2B; [4]): 0.429 nM
COC(=O)N[C@H](C(=O)N1CCC[C@H]1c1ncc(-c2ccc3c(c2)OC(c2cc4sccc4s2)n2c-3cc3cc(-c4c[nH]c([C@@H]5C[C@H]6C[C@H]6N5C(=O)[C@@H](NC(=O)OC)C(C)C)n4)ccc32)[nH]1)C(C)C (single isomer, unassigned) [Compound 717]	–	–	–	IC50 (HCV replicon 1AY93H; [3]): 0.2 nM; IC50 (HCV replicon 1A; HCV replicon 1A): 24 pM; IC50 (HCV replicon 2B; [4]): 1.16 nM
COC(=O)NC(C(=O)N1CCC[C@H]1c1ncc(-c2ccc3c(c2)cc2n3C(c3ccc(CC(F)(F)F)s3)Oc3cc(-c4cnc([C@@H]5CCCN5C(=O)[C@@H](NC(=O)OC)C(C)C)[nH]4)cc(F)c3-2)[nH]1)C1C[C@@H](C)O[C@@H](C)C1 (stereo partly drawn) [Compound 381]	–	–	–	IC50 (HCV replicon 1AY93H; [5]): 0.141 nM; IC50 (HCV replicon 1A; Hepatitis C virus, replicon 1A): 1.4 pM; IC50 (HCV replicon 2B; [2]): 0.181 nM
COC(=O)NC(C(=O)N1CCC[C@H]1c1ncc(-c2ccc3c(c2)cc2n3C(c3ccc(C(C)C)s3)Oc3cc(-c4cnc([C@@H]5CCCN5C(=O)[C@@H](NC(=O)OC)C(C)C)[nH]4)cc(F)c3-2)[nH]1)C1CCOC(C)(C)C1 (single isomer, unassigned) [Compound 237]	0.21	1.2	0.4	–
COC(=O)NC(C(=O)N1CCC[C@H]1c1ncc(-c2cc(F)c3c(c2)OC(c2ccc(C4CC4)s2)n2c-3cc3cc(-c4cnc([C@@H]5CCCN5C(=O)[C@@H](NC(=O)OC)C(C)C)[nH]4)ccc32)[nH]1)C1CCOC(C)(C)C1 (single isomer, unassigned) [Compound 211]	0.22	2.6	0.42	–
CCc1ccc(C2Oc3cc(-c4cnc([C@@H]5CCCN5C(=O)[C@@H](NC(=O)OC)C(C)C)[nH]4)cc(F)c3-c3cc4cc(-c5cnc([C@@H]6CCCN6C(=O)C(NC(=O)OC)C6CCOC(C)(C)C6)[nH]5)ccc4n32)s1 (single isomer, unassigned) [Compound 146]	0.57	1.2	0.38	–
COC(=O)NC(C(=O)N1CCC[C@H]1c1ncc(-c2ccc3c(c2)cc2n3C(c3ccc(C4CC4)s3)Oc3cc(-c4cnc([C@@H]5CCCN5C(=O)[C@@H](NC(=O)OC)C(C)C)[nH]4)cc(F)c3-2)[nH]1)C1C[C@@H](C)O[C@H](C)C1 (single isomer, unassigned) [Compound 192]	0.028	1.1	0.047	–
CCc1ccc(C2Oc3cc(-c4cnc([C@@H]5CCCN5C(=O)[C@@H](NC(=O)OC)C(C)C)[nH]4)cc(F)c3-c3cc4cc(-c5cnc([C@@H]6CCCN6C(=O)C(NC(=O)OC)C6C[C@@H](C)O[C@@H](C)C6)[nH]5)ccc4n32)s1 (single isomer, unassigned) [Compound 145]	5.22	2.2	1.62	–
COC(=O)N[C@H](C(=O)N1CCC[C@H]1c1ncc(-c2ccc3c(c2)OC(c2cc(C)c(C)s2)n2c-3cc3cc(-c4cnc([C@@H]5C[C@H]6C[C@H]6N5C(=O)[C@@H](NC(=O)OC)C(C)C)[nH]4)ccc32)[nH]1)C(C)C (single isomer, unassigned) [Compound 501]	–	–	–	IC50 (HCV replicon 1AY93H; [3]): 4.35 nM; IC50 (HCV replicon 1A; HCV replicon 1A): 24 pM; IC50 (HCV replicon 2B; [4]): 8.37 nM
CCc1ccc(C2Oc3cc(-c4cnc([C@@H]5CCCN5C(=O)[C@@H](NC(=O)OC)C(C)C)[nH]4)cc(F)c3-c3cc4cc(-c5cnc([C@@H]6CCCN6C(=O)C(NC(=O)OC)C6CCOC(C)(C)C6)[nH]5)ccc4n32)s1 (single isomer, unassigned) [Compound 152]	0.48	1.6	0.53	–
